Source: PubChem BioAssay AID1963833 (Molecular Pharmacology Branch, DTP, NCI, 2024)
pIC50: −log10 of the molar value.

Tested on: 883617-216-R-J1-PDC complex spheroid viability
Experiment: Anticancer human tumor 883617-216-R-J1-PDC patient-derived bladder carcinoma cell line growth inhibition [POLQ]
Conditions: for pIC50: curve of first compound; for viability, T/C: stronger effect = lower value
In short: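 Growth inhibition in 3D: complex spheroids (tumor PDC, HUVEC, MSC) treated with POLQ inhibitor combinations; where Cmax unknown, highest tested concentration 10 microM, except SN-38 at 1 microM.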

[1] = second compound 0.0316 µM, first compound 0.0316 µM
[2] = second compound 0.0316 µM, first compound 0.1 µM
[3] = second compound 0.0316 µM, first compound 0.316 µM
[4] = second compound 0.0316 µM, first compound 1 µM
[5] = second compound 0.0316 µM, first compound 3.16 µM
[6] = second compound 0.0316 µM, first compound 10 µM
[7] = second compound 0.1 µM, first compound 0.0316 µM
[8] = second compound 0.1 µM, first compound 0.1 µM
[9] = second compound 0.1 µM, first compound 0.316 µM
[10] = second compound 0.1 µM, first compound 1 µM
[11] = second compound 0.1 µM, first compound 3.16 µM
[12] = second compound 0.1 µM, first compound 10 µM
[13] = second compound 0.316 µM, first compound 0.0316 µM
[14] = second compound 0.316 µM, first compound 0.1 µM
[15] = second compound 0.316 µM, first compound 0.316 µM
[16] = second compound 0.316 µM, first compound 1 µM
[17] = second compound 0.316 µM, first compound 3.16 µM
[18] = second compound 0.316 µM, first compound 10 µM
[19] = second compound 1 µM, first compound 0.0316 µM
[20] = second compound 1 µM, first compound 0.1 µM
[21] = second compound 1 µM, first compound 0.316 µM
[22] = second compound 1 µM, first compound 1 µM
[23] = second compound 1 µM, first compound 3.16 µM
[24] = second compound 1 µM, first compound 10 µM
[25] = second compound 3.16 µM, first compound 0.0316 µM
[26] = second compound 3.16 µM, first compound 0.1 µM
[27] = second compound 3.16 µM, first compound 0.316 µM
[28] = second compound 3.16 µM, first compound 1 µM
[29] = second compound 3.16 µM, first compound 3.16 µM
[30] = second compound 3.16 µM, first compound 10 µM
[31] = second compound 10 µM, first compound 0.0316 µM
[32] = second compound 10 µM, first compound 0.1 µM
[33] = second compound 10 µM, first compound 0.316 µM
[34] = second compound 10 µM, first compound 1 µM
[35] = second compound 10 µM, first compound 3.16 µM
[36] = second compound 10 µM, first compound 10 µM
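Further: spheroids exposed to compounds for seven days before readout.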
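Wherever viability, T/C is given: 100% = DMSO vehicle control viability.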

CCc1cc2c(N3CCc4c(cc(Cn5ccnc5)cc4-c4cn(C)nc4C(F)(F)F)C3=O)cc(C)nc2c(OC)n1 + COC1C(OC(N)=O)C(O)C(Oc2ccc3c(O)c(NC(=O)c4ccc(O)c(CC=C(C)C)c4)c(=O)oc3c2C)OC1(C)C
pIC50 (second compound 0.0316 µM): < 5.00
pIC50 (second compound 0.1 µM): 5.06
pIC50 (second compound 0.316 µM): 5.03
pIC50 (second compound 1 µM): < 5.00
pIC50 (second compound 3.16 µM): < 5.00
pIC50 (second compound 10 µM): < 5.00
viability, T/C [1]: 96.2%
viability, T/C [2]: 105%
viability, T/C [3]: 96.8%
viability, T/C [4]: 80.6%
viability, T/C [5]: 77.2%
viability, T/C [6]: 58.9%
viability, T/C [7]: 98.4%
viability, T/C [8]: 106%
viability, T/C [9]: 109%
viability, T/C [10]: 94.9%
viability, T/C [11]: 68%
viability, T/C [12]: 47.6%
viability, T/C [13]: 107%
viability, T/C [14]: 109%
viability, T/C [15]: 105%
viability, T/C [16]: 86.2%
viability, T/C [17]: 75%
viability, T/C [18]: 48%
viability, T/C [19]: 99%
viability, T/C [20]: 101%
viability, T/C [21]: 96.6%
viability, T/C [22]: 106%
viability, T/C [23]: 75.3%
viability, T/C [24]: 61.3%
viability, T/C [25]: 96.3%
viability, T/C [26]: 103%
viability, T/C [27]: 115%
viability, T/C [28]: 89.7%
viability, T/C [29]: 75.8%
viability, T/C [30]: 58.4%
viability, T/C [31]: 99.8%
viability, T/C [32]: 99.6%
viability, T/C [33]: 97.1%
viability, T/C [34]: 97.4%
viability, T/C [35]: 72.7%
viability, T/C [36]: 59.4%

CCc1cc2c(N3CCc4c(cc(Cn5ccnc5)cc4-c4cn(C)nc4C(F)(F)F)C3=O)ccnc2c(OC)n1 + COC1C(OC(N)=O)C(O)C(Oc2ccc3c(O)c(NC(=O)c4ccc(O)c(CC=C(C)C)c4)c(=O)oc3c2C)OC1(C)C
pIC50 (second compound 0.0316 µM): < 5.00
pIC50 (second compound 0.1 µM): < 5.00
pIC50 (second compound 0.316 µM): < 5.00
pIC50 (second compound 1 µM): < 5.00
pIC50 (second compound 3.16 µM): < 5.00
pIC50 (second compound 10 µM): < 5.00
viability, T/C [1]: 103%
viability, T/C [2]: 103%
viability, T/C [3]: 97.7%
viability, T/C [4]: 104%
viability, T/C [5]: 78.8%
viability, T/C [6]: 57.6%
viability, T/C [7]: 97.8%
viability, T/C [8]: 93.9%
viability, T/C [9]: 101%
viability, T/C [10]: 92.5%
viability, T/C [11]: 72.7%
viability, T/C [12]: 58.6%
viability, T/C [13]: 106%
viability, T/C [14]: 93.4%
viability, T/C [15]: 115%
viability, T/C [16]: 99.9%
viability, T/C [17]: 78.2%
viability, T/C [18]: 53.5%
viability, T/C [19]: 102%
viability, T/C [20]: 93.1%
viability, T/C [21]: 115%
viability, T/C [22]: 100%
viability, T/C [23]: 82.4%
viability, T/C [24]: 57.1%
viability, T/C [25]: 94.6%
viability, T/C [26]: 95.3%
viability, T/C [27]: 106%
viability, T/C [28]: 104%
viability, T/C [29]: 79.2%
viability, T/C [30]: 62.6%
viability, T/C [31]: 103%
viability, T/C [32]: 93.4%
viability, T/C [33]: 110%
viability, T/C [34]: 106%
viability, T/C [35]: 75.3%
viability, T/C [36]: 57.8%

COc1cc2cc(C(=O)CCC(=O)O)sc2cc1OC + COC1C(OC(N)=O)C(O)C(Oc2ccc3c(O)c(NC(=O)c4ccc(O)c(CC=C(C)C)c4)c(=O)oc3c2C)OC1(C)C
pIC50 (second compound 0.0316 µM): < 5.00
pIC50 (second compound 0.1 µM): < 5.00
pIC50 (second compound 0.316 µM): < 5.00
pIC50 (second compound 1 µM): < 5.00
pIC50 (second compound 3.16 µM): < 5.00
pIC50 (second compound 10 µM): < 5.00
viability, T/C [1]: 91.3%
viability, T/C [2]: 89.1%
viability, T/C [3]: 105%
viability, T/C [4]: 83.3%
viability, T/C [5]: 101%
viability, T/C [6]: 90.9%
viability, T/C [7]: 113%
viability, T/C [8]: 102%
viability, T/C [9]: 88.7%
viability, T/C [10]: 93.8%
viability, T/C [11]: 99.6%
viability, T/C [12]: 102%
viability, T/C [13]: 89.4%
viability, T/C [14]: 83.6%
viability, T/C [15]: 92.5%
viability, T/C [16]: 93%
viability, T/C [17]: 101%
viability, T/C [18]: 89.2%
viability, T/C [19]: 98.9%
viability, T/C [20]: 96.6%
viability, T/C [21]: 86.4%
viability, T/C [22]: 100%
viability, T/C [23]: 90.4%
viability, T/C [24]: 98.2%
viability, T/C [25]: 94%
viability, T/C [26]: 94.1%
viability, T/C [27]: 90.7%
viability, T/C [28]: 101%
viability, T/C [29]: 98.6%
viability, T/C [30]: 92.4%
viability, T/C [31]: 101%
viability, T/C [32]: 98.5%
viability, T/C [33]: 88.5%
viability, T/C [34]: 93.9%
viability, T/C [35]: 84.6%
viability, T/C [36]: 101%
